Data as given in article PMC10376129, “Mechanistic Understanding of Idiosyncratic Drug-Induced Hepatotoxicity Using Co-Cultures of Hepatocytes and Macrophages” (Antioxidants, 2023).
Entries after “also recorded” stand apart in the source; their conditions may differ.

Experiments:
[1] = parameters: method as in PMID 18524759; conditions: cited from earlier work
HepG2 cells = test: MTT cytotoxicity in HepG2 monocultures; type: cell-based, human; conditions: for CC50: Homo sapiens, HepG2 monoculture, 24 h exposure, in presence of LPS and IFN-γ, read-out: IC50 values; for effects on the viability: LPS and IFN-γ together, HepG2 cells, Supplementary Figure S1
Protocol: HepG2 cells (ECACC No. 85011430) were cultured in Ham’s F-12/Leibovitz L-15 (1:1 v/v), supplemented with 7% FBS, 50 U of penicillin/mL, and 50 μg of streptomycin/mL.
HepG2 cells were seeded at a density of 47,000 cells/cm^2 as a monoculture control for all the experiments.
(§1) For the toxicity studies, HepG2 cells alone or in co-culture with different proportions of M1 macrophages were seeded in 96-well plates (15,000 cells/well) and were allowed to grow and equilibrate for 24 h. Then, cells were exposed for 24 h to eight concentrations of the tested compounds (TVX, LVX, TGZ, RGZ). Each experimental condition was assayed in triplicate wells. Test compounds were diluted in DMSO, and then easily diluted in the culture medium to obtain the desired final concentrations (Table 1). The final DMSO concentration in the culture medium never exceeded 0.5% (v/v), and the control cultures were treated with the same amount of solvent.
(§2) Cytotoxicity was assessed by means of the tetrazolium reduction colorimetric assay (MTT test) as previously described in detail.

[2] = test system: HepG2 monocultures and different co-cultures of HepG2 and M1-THP-1 cells; test: Concentration-dependent toxicity compared across test systems (MTT viability); type: cell-based; conditions: 24 h exposure; for concentrations producing significant cell death / decrease in viability: Figure 6; for effect on viability in co-cultures compared to monocultures of HepG2 cells: co-culture ratios 1:10, 1:5, 1:2
Protocol: as §1, §2
Data represent triplicate measurements and are expressed as the mean ± SD. Student’s t-test was used for statistical evaluations between two groups, whereas one-way ANOVA followed by Tukey’s multiple comparisons test was used when comparing 3 or more groups. The level of significance was chosen as p < 0.05 and calculated using GraphPad Prism v. 8.4.3.

[3] = test system: co-cultures of HepG2 and M1-THP-1 cells; test: MTT cytotoxicity in direct co-cultures of HepG2 and M1-THP-1 macrophages; type: cell-based; conditions: Homo sapiens, HepG2, 24 h, 24 h exposure
Protocol: (§3) THP-1 cells were differentiated to macrophages via incubation with phorbol-12-myrsitate 13-acetate (PMA, 20 or 50 ng/mL) for 72 h. After differentiation, THP-1 cells became adherent with typical macrophage morphology. To generate M1 macrophages, cells were then stimulated with LPS (1 µg/mL) in the presence or absence of interferon γ (IFN-γ) (20 ng/mL) as described in Figure 1.
For subculturing purposes, cells (HepG2 or THP-1) were detached via treatment with 0.25% trypsin/0.02% EDTA at 37 °C. In order to determine the effect of pro-inflammatory macrophages on HepG2 cells, different co-culture conditions were tested. Co-culture proportions were 1:10, 1:5, and 1:2 (M1:HepG2), respectively. Cells were seeded at 47,000 cells/cm^2 per condition and co-culture media consisted of HepG2 and M1-THP-1 cell culture media (1:1). The schedule followed for co-culturing HepG2 cells and M1-THP-1 macrophages is exemplified in Figure 2.
as §1, §2

[4] = test system: HepG2 cells and co-cultures at different ratios (1:10, 1:5, and 1:2); test: Gene expression (RT-qPCR) of oxidative stress, GSH-related and apoptotic genes in treated cultures; type: cell-based, human
Excerpt: Total RNA was extracted using the RNeasy Plus Mini Kit (Qiagen, Madrid, Spain), and was reverse transcribed as described elsewhere. Diluted cDNA was amplified using LightCycler DNA Master SYBR Green I (Roche Applied Science, Barcelona, Spain) and the appropriate primers (Supplementary Table S2) were amplified using a LightCycler 480 Instrument (Roche Applied Science, Barcelona, Spain). For normalization, porphobilinogen deaminase (PBGD), TATA box binding protein (TBP), Large Ribosomal Subunit Protein UL10 (RPLP0), and actin were used. During each amplification, a reference calibrator cDNA, made from a pool of human livers, was included. The relative mRNA expression was calculated using the LightCycler Relative Quantification Analysis software verson 1.5.0.39. Based on PCR efficiencies and the cycle thresholds, the relative concentration of the target and reference cDNAs and their ratio were determined. Additionally, gene expression analysis of test systems alone or treated with the selected toxic compounds was also performed as indicated in Section 2.3.2. For toxicotranscriptomics studies, cells were seeded in P12-well plates at a density of 47,000 cells/cm^2.

THP-1 cells = test: Viability of THP-1 cells after differentiation to pro-inflammatory macrophages; type: cell-based, human; conditions: PMA 50 ng/mL for differentiation followed by LPS and IFN-γ
Protocol: as §3

[5] = 100 µM, compared to non-treated cells

For `C[C@H]1COc2c(N3CCN(C)CC3)c(F)cc3c(=O)c(C(=O)O)cn1c23` [Levofloxacin], the Cmax [1] is given as 15.7 µM, the CC50 (HepG2 cells) is given as > 800 µM and the “concentrations producing significant cell death / decrease in viability” value [2] is given as > 750 µM. For the same molecule, the “effect on viability in co-cultures compared to monocultures of HepG2 cells” value (shortened to “effect … compared to monocultures of HepG2 cells”) [2] was “no synergic effect was observed”, the IC50 ([3]; Co-culture 1.10 (M1:HepG2)) was > 800 µM and the IC50 ([3]; Co-culture 1.2 (M1:HepG2)) was > 800 µM. The IC50 ([3]; Co-culture 1.5 (M1:HepG2)) was > 800 µM and the “mRNA levels of Nfr2 pathway, GSH-related enzymes and apoptotic genes” value (shortened to “mRNA levels of Nfr2 pathway”) ([4]; 25 µM, 24 h, compared to non-treated cultures) was “did not significantly change the gene expression”.

`CCCCCCCCCCCCCC(=O)O[C@@H]1[C@@H](C)[C@@]2(O)[C@@H](C=C(CO)C[C@]3(O)C(=O)C(C)=C[C@@H]23)[C@@H]2C(C)(C)[C@]12OC(C)=O` [PMA, phorbol-12-myrsitate 13-acetate] showed a viability after differentiation (THP-1 cells) of 79 ± 5.

For `CN(CCOc1ccc(CC2SC(=O)NC2=O)cc1)c1ccccn1` (stereo not drawn) [Rosiglitazone], the CC50 (HepG2 cells) was > 250 µM, the “concentrations producing significant cell death / decrease in viability” value [2] was “higher than 200 µM” and the “effect … compared to monocultures of HepG2 cells” value [2] was “no significant differences between the test systems were found”. For the same molecule, the IC50 ([3]; Co-culture 1.10 (M1:HepG2)) was > 250 µM, the IC50 ([3]; Co-culture 1.2 (M1:HepG2)) was > 250 µM and the IC50 ([3]; Co-culture 1.5 (M1:HepG2)) was > 250 µM. For the same molecule, the “mRNA levels of Nfr2 pathway” value [4, 5] was “produced increases in the expression of GCLM, TXNRD1, and DDIT”.

With `Cc1c(C)c2c(c(C)c1O)CCC(C)(COc1ccc(CC3SC(=O)NC3=O)cc1)O2` (stereo not drawn) [Troglitazone] the CC50 (HepG2 cells) was 223 µM, the “concentrations producing significant cell death / decrease in viability” value [2] was “higher than 100 µM” and the “effect … compared to monocultures of HepG2 cells” value [2] was “decrease in the viability was more significant in the co-cultures at the highest ratios of M1 cells”. The IC50 ([3]; Co-culture 1.10 (M1:HepG2)) was 208 µM, the IC50 ([3]; Co-culture 1.2 (M1:HepG2)) was 188 µM and the IC50 ([3]; Co-culture 1.5 (M1:HepG2)) was 203 µM. The “mRNA levels of Nfr2 pathway” value [4, 5] was “increased the GCLM, DDIT, and TXNRD1 levels and reduced the GSTA2, GSTA4, GSTT1, and GPX2 levels”.

For `N[C@@H]1[C@H]2CN(c3nc4c(cc3F)c(=O)c(C(=O)O)cn4-c3ccc(F)cc3F)C[C@@H]12` [Trovafloxacin], the Cmax [1] is given as 4.1 µM, the CC50 (HepG2 cells) is given as 675 µM and the “concentrations producing significant cell death / decrease in viability” value [2] is given as “higher than 50 µM”. For the same molecule, the “effect … compared to monocultures of HepG2 cells” value [2] was “A synergistic effect was detected in the co-cultures”, the IC50 ([3]; Co-culture 1.10 (M1:HepG2)) was 531 µM and the IC50 ([3]; Co-culture 1.2 (M1:HepG2)) was 74 µM. For the same molecule, the IC50 ([3]; Co-culture 1.5 (M1:HepG2)) was 529 µM and the “mRNA levels of Nfr2 pathway” value ([4]; 25 µM, 24 h, compared to non-treated cultures, listed as TVX) was “reduced the GSTT1, GSTT2, GSTA2, GSTA4, NNQO1, GPX1, GPX2, and GPX4 levels in all the culture conditions; also recorded: Increased levels of AT4 and SOD2”.

For lipopolysaccharide [LPS], the “effects on the viability” value (HepG2 cells) was “No significant effects on the viability”.

B1: interferon γ (protein, UniProt P01579 24-161, looked up)
Interferon gamma: QDPYVKEAENLKKYFNAGHSDVADNGTLFLGILKNWKEESDRKIMQSQIVSFYFKLFKNFKDDQSIQKSVETIKEDMNVKFFNSNKKKRDDFEKLTNYSVTDLNVQRKAIHELIQVMAELSPAAKTGKRKRSQMLFRG
notes: cytokine used with LPS to generate M1 macrophages
For B1, the “effects on the viability” value (HepG2 cells) was “No significant effects on the viability”.
